Source: patent US12180187B2, “1-phenyl-5-azinylpyrazolyl-3-oxyalkyl acids and their use for controlling unwanted plant growth” (BAYER AKTIENGESELLSCHAFT, priority 2019, dated 2024)

Columns and labels:
POAAN [1] = assay: Pre-emergence action against POAAN, 1280 g/ha; assay type: in vivo, Poa annua; conditions: visual scoring after about 3 weeks vs untreated controls, 100% = plants have died, 0% = like control plants
How it was run: (§1)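 Visual % scoring, roughly 3 weeks post-application, against untreated controls; 100% means plants died. Treatment went onto the soil covering sown seeds (sandy loam), as aqueous suspension or emulsion plus 0.5% additive.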

VERPE [2] = assay: Pre-emergence action against VERPE, 1280 g/ha; assay type: in vivo, Veronica persica; conditions: scored visually after about 3 weeks vs untreated controls (100% = plants have died)
How it was run: as §1

ECHCG [3] = assay: Post-emergence action against ECHCG, 1.28 kg/ha; assay type: in vivo, Echinochloa crus-galli; conditions: dosage 1280 g/ha, visual rating about 3 weeks after treatment vs untreated controls
How it was run: (§2)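 Percent activity was scored visually ~3 wk post-spray relative to untreated plants. Treatment was post-emergence at the one-leaf stage using WP/EC in water with 0.5% additive (600 L/ha).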

DIGSA [4] = assay: Post-emergence action against DIGSA, 1.28 kg/ha; assay type: in vivo, Digitaria sanguinalis; conditions: dosage 1280 g/ha, visual rating about 3 weeks after treatment vs untreated controls
How it was run: as §2

KCHSC [5] = assay: Pre-emergence action against KCHSC, 1280 g/ha; assay type: in vivo, Bassia scoparia; conditions: scored visually after about 3 weeks vs untreated controls (100% = plants have died)
Excerpt: 1. Pre-Emergence Herbicidal Effect and Crop Plant Compatibility a) Seeds of mono- and dicotyledonous weed plants are placed in plastic pots in sandy loam soil (doubly sown with one species each of mono- or dicotyledonous weed plants per pot) and covered with soil. The compounds of the invention, formulated in the form of wettable powders (WP) or as emulsion concentrates (EC), are then applied onto the surface of the covering soil as aqueous suspension or emulsion with addition of 0.5% additive at a water application rate equivalent to 600 litres per hectare. After the treatment, the pots are placed in a greenhouse and kept under good growth conditions for the trial plants. After about 3 weeks, the effect of the preparations is scored visually in comparison with untreated controls as percentages. For example, 100% activity=the plants have died, 0% activity=like control plants. 1. Pre-Emergence Effectiveness Tables 1 to 12 below show the effects of selected compounds of the general formula (I) according to Tables 1 and 2 on various harmful plants and at an application rate corresponding to 1280 g/ha, which were obtained by the experimental procedure mentioned above.

DIGSA [6] = assay: Pre-emergence action against DIGSA, 1280 g/ha; assay type: in vivo, Digitaria sanguinalis; conditions: visual scoring after about 3 weeks vs untreated controls, 100% = plants have died, 0% = like control plants
How it was run: as §1

ALOMY [7] = assay: Pre-emergence action against ALOMY, 1280 g/ha; assay type: in vivo, Alopecurus myosuroides; conditions: visual scoring after about 3 weeks vs untreated controls, 100% = plants have died, 0% = like control plants
How it was run: as §1

AMARE [8] = assay: Pre-emergence action against AMARE, 1280 g/ha; assay type: in vivo, Amaranthus retroflexus; conditions: scored visually after about 3 weeks vs untreated controls (100% = plants have died)
How it was run: as §1

LOLRI [9] = assay: Pre-emergence action against LOLRI, 1280 g/ha; assay type: in vivo, Lolium rigidum; conditions: visual scoring after about 3 weeks vs untreated controls, 100% = plants have died, 0% = like control plants
How it was run: as §1

SETVI [10] = assay: Pre-emergence action against SETVI, 1280 g/ha; assay type: in vivo, Setaria viridis; conditions: visual scoring after about 3 weeks vs untreated controls, 100% = plants have died, 0% = like control plants
How it was run: as §1

ECHCG [11] = assay: Pre-emergence action against ECHCG, 1280 g/ha; assay type: in vivo, Echinochloa crus-galli; conditions: visual scoring after about 3 weeks vs untreated controls, 100% = plants have died, 0% = like control plants
How it was run: as §1

ALOMY [12] = assay: Post-emergence action against ALOMY, 1.28 kg/ha; assay type: in vivo, Alopecurus myosuroides; conditions: dosage 1280 g/ha, visual rating about 3 weeks after treatment vs untreated controls
How it was run: as §2

SETVI [13] = assay: Post-emergence action against SETVI, 1.28 kg/ha; assay type: in vivo, Setaria viridis; conditions: dosage 1280 g/ha, visual rating about 3 weeks after treatment vs untreated controls
How it was run: as §2

ABUTH = assay: Post-emergence action against ABUTH, 1.28 kg/ha; assay type: in vivo, Abutilon theophrasti; conditions: dosage 1280 g/ha, visual rating about 3 weeks after treatment vs untreated controls (100% = plants died)
How it was run: as §2

MATIN [14] = assay: Post-emergence action against MATIN, 1.28 kg/ha; assay type: in vivo, Tripleurospermum inodorum (Matricaria inodora); conditions: dosage 1280 g/ha, visual rating about 3 weeks after treatment vs untreated controls (100% = plants died)
How it was run: as §2

MATIN [15] = assay: Pre-emergence action against MATIN, 1280 g/ha; assay type: in vivo, Tripleurospermum inodorum (Matricaria inodora); conditions: scored visually after about 3 weeks vs untreated controls (100% = plants have died)
How it was run: as §1

AMARE [16] = assay: Post-emergence action against AMARE, 1.28 kg/ha; assay type: in vivo, Amaranthus retroflexus; conditions: dosage 1280 g/ha, visual rating about 3 weeks after treatment vs untreated controls (100% = plants died)
How it was run: as §2

KCHSC [17] = assay: Post-emergence action against KCHSC, 1.28 kg/ha; assay type: in vivo, Bassia scoparia; conditions: dosage 1280 g/ha, visual rating about 3 weeks after treatment vs untreated controls (100% = plants died)
How it was run: as §2

VERPE [18] = assay: Post-emergence action against VERPE, 1.28 kg/ha; assay type: in vivo, Veronica persica; conditions: dosage 1280 g/ha, visual rating about 3 weeks after treatment vs untreated controls (100% = plants died)
How it was run: as §2

POAAN [19] = assay: Post-emergence action against POAAN, 1.28 kg/ha; assay type: in vivo, Poa annua; conditions: dosage 1280 g/ha, visual rating about 3 weeks after treatment vs untreated controls
How it was run: as §2

STEME [20] = assay: Post-emergence action against STEME, 1.28 kg/ha; assay type: in vivo, Stellaria media; conditions: dosage 1280 g/ha, visual rating about 3 weeks after treatment vs untreated controls (100% = plants died)
How it was run: as §2

STEME [21] = assay: Pre-emergence action against STEME, 1280 g/ha; assay type: in vivo, Stellaria media; conditions: scored visually after about 3 weeks vs untreated controls (100% = plants have died)
How it was run: as §1

LOLRI [22] = assay: Post-emergence action against LOLRI, 1.28 kg/ha; assay type: in vivo, Lolium rigidum; conditions: dosage 1280 g/ha, visual rating about 3 weeks after treatment vs untreated controls
How it was run: as §2

Row | SMILES | Pre-emergence action against POAAN (POAAN [1]) [%] | Pre-emergence action against VERPE (VERPE [2]) [%] | Post-emergence action against ECHCG (ECHCG [3]) [%] | Post-emergence action against DIGSA (DIGSA [4]) [%] | Pre-emergence action against KCHSC (KCHSC [5]) [%] | Pre-emergence action against DIGSA (DIGSA [6]) [%] | Pre-emergence action against AMARE (AMARE [8]) [%] | Pre-emergence action against LOLRI (LOLRI [9]) [%] | Pre-emergence action against SETVI (SETVI [10]) [%] | Pre-emergence action against ECHCG (ECHCG [11]) [%] | Post-emergence action against ALOMY (ALOMY [12]) [%] | Post-emergence action against MATIN (MATIN [14]) [%] | Pre-emergence action against MATIN (MATIN [15]) [%] | Post-emergence action against AMARE (AMARE [16]) [%] | Post-emergence action against KCHSC (KCHSC [17]) [%] | Post-emergence action against VERPE (VERPE [18]) [%] | Post-emergence action against POAAN (POAAN [19]) [%] | Post-emergence action against STEME (STEME [20]) [%] | Pre-emergence action against STEME (STEME [21]) [%] | Post-emergence action against LOLRI (LOLRI [22]) [%] | other results
1 | O=C(O)C1CCCN1C(=O)COc1nn(-c2ccccc2F)c(-c2ccc(F)nc2)c1Br (centres unmarked) [Example X-009] | 100 | 100 | 100 | 90 | 90 | 90 | 100 | 100 | 100 | 100 | 100 | 90 | 100 | 100 | 90 | 100 | 100 | 100 | 100 |  | Pre-emergence action against ALOMY (ALOMY [7]): 100%; Post-emergence action against SETVI (SETVI [13]): 100%; Post-emergence action against ABUTH (ABUTH): 100%
2 | CONC(=O)COc1nn(-c2ccc(F)cc2F)c(-c2ccc(F)nc2)c1Br [Example X-024] | 100 | 100 | 100 | 100 | 100 | 100 | 100 | 100 | 100 | 100 | 100 | 90 | 100 | 100 | 90 | 100 | 100 | 100 | 100 | 100 | Pre-emergence action against ALOMY (ALOMY [7]): 100%; Post-emergence action against SETVI (SETVI [13]): 90%; Post-emergence action against ABUTH (ABUTH): 100%
3 | COC(=O)[C@@H](C)Oc1nn(-c2ccccc2F)c(-c2cncnc2)c1[N+](=O)[O-] [VI-006] | 100 | 100 |  | 90 | 100 | 100 | 90 | 100 | 100 | 100 |  | 100 | 100 |  | 90 | 90 | 100 | 100 | 90 | 100 | 
4 | CCOC(=O)COc1nn(-c2ccc(F)cc2)c(-c2ccc(F)nc2)c1C(F)(F)F [VII-059] | 100 | 100 | 100 | 100 | 100 | 100 | 100 | 100 | 100 | 100 | 100 | 100 | 90 | 100 | 100 | 90 | 100 | 100 | 100 | 100 | Pre-emergence action against ALOMY (ALOMY [7]): 100%
5 | CCOC(=O)COc1nn(-c2ccc(F)cc2)c(-c2ccc(F)nc2)c1Br [VII-065] | 100 | 100 | 100 | 100 | 100 | 100 | 100 | 100 | 100 | 100 | 100 | 100 | 90 | 90 | 100 | 90 | 100 | 100 | 100 | 90 | Pre-emergence action against ALOMY (ALOMY [7]): 100%; Post-emergence action against SETVI (SETVI [13]): 90%; Post-emergence action against ABUTH (ABUTH): 90%
6 | O=C(O)COc1nn(-c2ccc(F)cc2)c(-c2ccc(F)nc2)c1Br [VII-095] | 100 | 100 | 100 | 100 | 100 | 100 | 100 | 100 | 100 | 100 | 100 | 100 | 90 | 90 | 100 | 90 | 100 | 90 | 100 | 100 | Pre-emergence action against ALOMY (ALOMY [7]): 100%; Post-emergence action against SETVI (SETVI [13]): 100%
7 | O=C(O)COc1nn(-c2ccc(F)cc2F)c(-c2ccc(F)nc2)c1Br [VII-100] | 100 | 100 | 90 | 90 | 100 | 90 | 100 | 100 | 90 |  | 100 | 90 | 100 | 100 | 90 | 100 | 100 | 100 | 100 | 100 | Post-emergence action against SETVI (SETVI [13]): 100%; Post-emergence action against ABUTH (ABUTH): 90%
